Experimental data from patent USRE48842E1, “Pyrimido-pyrrolo-oxazine-dione compound inhibitors of the cystic fibrosis transmembrane conductance regulator protein and uses therefor” (The Regents of the University of California, priority 2011, dated 2021).
In brackets after ≈: the same amount, converted by molar mass. Read-outs that look alike come from different tables or passages of the source.

Legend:
Aqueous solubility = format: physicochemical
[1] = In vitro metabolism in hepatic microsomes (LC/MS); format: in vitro ADME, rat; settings: for compound disappearance (loss) in hepatic microsomes: 30 min, 37° C.
Method: (§1) In Vitro Metabolism in Hepatic Microsomes—A compound of structure (I) was incubated for specified times at 37° C. with rat liver microsomes (e.g., 1 mg protein/ml; Sigma-Aldrich, St. Louis, Mo.) in potassium phosphate buffer (100 mM) containing NADPH (0 or 1 mM). The mixture was then chilled on ice, and 0.5 ml of ice-cold ethyl acetate was added. Samples were centrifuged for 15 min at 3,000 rpm, and the supernatant was evaporated to dryness under nitrogen. The residue was dissolved in 150 μl mobile phase (acetonitrile:water 3:1, containing 0.1% formic acid) for LC/MS analysis. Reverse-phase HPLC separations were carried out using a Waters C18 column (2.1×100 mm, […]) equipped with a solvent delivery system (Waters model 2690, Milford, Mass.). The solvent system consisted of a linear gradient from 5 to 95% acetonitrile run over 16 min (0.2 mL/min flow rate). Mass spectra were acquired on an Alliance HT 2790+ZQ mass spectrometer using negative ion detection.
as §1, with “Liquid Chromatography/Mass Spectrometry—Compounds (each at 5 μM) were” for “In Vitro Metabolism in Hepatic Microsomes—A compound of structure (I) was”, “(1” for “(e.g., 1”, “150” for “150 μl”, “detection, scanning from 150 to 1500 Da. The electrospray ion source parameters were as follows: capillary voltage 3.5 kV (positive ion mode), cone voltage 37 V, source temperature 120° C., desolvation temperature 250° C., cone gas flow 25 L/h, and dessolvation gas flow 350 L/h.” for “detection.”
PPQ-102 is a small-molecule inhibitor of CFTR chloride conductance with efficacy in preventing and reversing cyst formation in an organ culture model of PKD (see, e.g., Tradtrantip et al., J. Med. Chem. 2009, supra; Int'l Patent Appl. Publication No. WO 2011/019737). Preliminary analysis of the metabolic stability and aqueous solubility of PPQ-102, indicated poorer metabolic stability and lower water solubility (˜2 μM in albumin-free saline) than desired for optimal drugability. In vitro metabolic stability was determined by compound incubation with hepatic microsomes at 37° C. for specified times in the absence vs. presence of NADPH, following by LC/MS analysis. Shown in FIG. 6A is PPQ-102 disappearance in hepatic microsomes in the presence of NADPH, with ˜60% disappearance in 30 min.

human wildtype CFTR = human wildtype CFTR (Homo sapiens, UniProt P13569); assay: Fluorescence plate reader assay of CFTR inhibition (iodide influx); format: cell-based; set-up: expressed in transfected cells; host or cells: Fischer rat thyroid (FRT) cells; settings: Determined by micro-plate reader assay; FRT cells co-expressing human wild type CFTR and YFP-H148Q
Sequence of human wildtype CFTR (P13569 whole entry): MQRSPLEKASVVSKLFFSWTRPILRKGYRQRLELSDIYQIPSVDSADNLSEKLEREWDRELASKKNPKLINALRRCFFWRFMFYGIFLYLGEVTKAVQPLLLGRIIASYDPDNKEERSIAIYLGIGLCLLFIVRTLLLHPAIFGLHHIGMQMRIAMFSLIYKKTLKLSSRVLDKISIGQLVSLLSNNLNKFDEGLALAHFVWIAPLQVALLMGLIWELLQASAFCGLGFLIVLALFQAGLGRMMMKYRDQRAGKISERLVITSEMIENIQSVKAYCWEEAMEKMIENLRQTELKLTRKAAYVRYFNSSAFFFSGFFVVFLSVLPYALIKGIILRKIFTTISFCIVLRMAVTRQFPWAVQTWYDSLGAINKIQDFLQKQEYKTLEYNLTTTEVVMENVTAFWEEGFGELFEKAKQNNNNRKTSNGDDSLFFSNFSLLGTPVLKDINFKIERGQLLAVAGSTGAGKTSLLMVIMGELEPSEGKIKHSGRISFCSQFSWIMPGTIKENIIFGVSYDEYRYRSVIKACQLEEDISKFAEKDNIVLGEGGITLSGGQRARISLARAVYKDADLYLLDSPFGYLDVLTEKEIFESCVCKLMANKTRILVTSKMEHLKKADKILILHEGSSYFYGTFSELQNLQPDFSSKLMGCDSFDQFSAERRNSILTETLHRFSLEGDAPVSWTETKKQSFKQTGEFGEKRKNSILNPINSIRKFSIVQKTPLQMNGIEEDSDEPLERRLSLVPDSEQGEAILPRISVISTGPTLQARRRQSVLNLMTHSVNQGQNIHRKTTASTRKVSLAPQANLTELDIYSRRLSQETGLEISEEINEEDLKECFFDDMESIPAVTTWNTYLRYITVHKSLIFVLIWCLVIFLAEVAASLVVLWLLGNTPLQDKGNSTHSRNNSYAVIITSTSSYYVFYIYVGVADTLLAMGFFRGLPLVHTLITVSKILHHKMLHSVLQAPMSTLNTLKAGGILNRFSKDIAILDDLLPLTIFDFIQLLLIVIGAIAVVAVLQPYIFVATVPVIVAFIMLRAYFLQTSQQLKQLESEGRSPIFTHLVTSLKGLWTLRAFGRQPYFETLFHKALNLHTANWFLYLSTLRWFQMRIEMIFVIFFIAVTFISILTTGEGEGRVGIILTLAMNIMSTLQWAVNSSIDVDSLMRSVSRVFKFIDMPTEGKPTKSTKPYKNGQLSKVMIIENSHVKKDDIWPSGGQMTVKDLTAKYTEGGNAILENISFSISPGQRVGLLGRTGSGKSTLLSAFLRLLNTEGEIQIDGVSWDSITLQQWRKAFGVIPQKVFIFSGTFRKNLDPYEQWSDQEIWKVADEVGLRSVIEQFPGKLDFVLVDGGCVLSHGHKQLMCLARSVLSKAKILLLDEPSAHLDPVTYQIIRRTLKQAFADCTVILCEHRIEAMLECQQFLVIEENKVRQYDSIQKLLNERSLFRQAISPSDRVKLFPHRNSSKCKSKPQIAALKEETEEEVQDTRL
Method: Cell Culture and Plate Reader Assay of CFTR Inhibition—Fischer rat thyroid (FRT) cells co-expressing human wild type CFTR and the halide indicator YFP-H148Q were cultured in 96-well black-walled microplates (Corning Costar) at a density of 20,000 cells per well in Coon's modified F12 medium containing 10% fetal bovine serum, 2 mM L-glutamine, 100 U/mL penicillin and 100 μg/mL streptomycin. CFTR chloride conductance was assayed at 48 h after plating on a FluoStar fluorescence plate reader (BMG Lab Technologies) as described (see, e.g., Ma et al., J Clin Invest. 2002, supra). Each well was washed 3 times with PBS, leaving 60 μL PBS. Test compounds were added and incubated with the cells for 45 min. Then, 5 μL of a CFTR-activating cocktail (10 μM forskolin, 100 μM IBMX, 20 μM apigenin in PBS) was added. After 15 min, each well was assayed for iodide influx by recording fluorescence continuously (200 ms per point) for 2 s (baseline) and then for 10 s after rapid addition of 160 μL of isosmolar PBS in which 137 mM chloride was replaced by iodide. The initial rate of iodide influx was computed from fluorescence data by non-linear regression.
Initial testing of the compounds for the capability to inhibit CFTR was performed using a plate-reader assay in which iodide influx was measured in FRT cells co-expressing human wild type CFTR and the iodide-sensing yellow fluorescent protein YFP-H148Q/1152L. […] Table B below provides IC50 values for PPQ and BPO compounds.
The relative IC50 values obtained from the plate reader assay are useful for comparisons. Absolute IC50 values obtained from the plate-reader assay are approximate, generally underestimating compound potency because of assay non-linearities, pH-dependent YFP fluorescence, the use of iodide instead of chloride, and compound dilution at the start of the assay (see, e.g., Galietta et al., Am. J. Physiol. Cell Physiol. 281:C1734-42 (2001)).

Compound | solubility (Aqueous solubility; pH 7.4 aqueous phosphate buffer, read-out: solubility) | compound disappearance (loss) in hepatic microsomes ([1]; in the presence of NADPH) | metabolic stability in hepatic microsomes (in words) ([1]; in the presence of NADPH) | IC50 (human wildtype CFTR) | solubility (Aqueous solubility; albumin-free saline, saline or isotonic, read-out: water solubility) | compound metabolized in hepatic microsomes ([1]; 4 h, in the presence of NADPH) | compound loss in hepatic microsomes ([1]; in the absence of NADPH)
Cn1c(=O)c2c(-c3ccccc3)n3c(c2n(C)c1=O)C(c1ccc(Br)o1)Oc1ccc(C(=O)O)cc1-3 (racemic) [BPO-27, 6-(5-Bromofuran-2-yl)-7,9-dimethyl-8,10-dioxo-11-phenyl-7,8,9,10-tetrahydro-6H-benzo[b]pyrimido[4′,5′:3,4]pyrrolo[1,2-d][1,4]oxazine-2-carboxylic acid] | 17 µM (≈ 9.32 µg/mL) | < 5% | excellent stability | 40 nM | – | – | –
Cc1ccc(C2Nc3ccccc3-n3c(-c4ccccc4)c4c(=O)n(C)c(=O)n(C)c4c32)o1 (stereo not drawn) [PPQ-102, 7,9-Dimethyl-6-(5-methylfuran-2-yl)-11-phenyl-5,6-dihydropyrimido[4′,5′-3,4]pyrrolo[1,2-a]quinoxaline-8,10-(7H,9H)-dione, reference compound] | – | ~60% | – | 250 nM | ~2 µM (≈ 0.877 µg/mL) | > 75% | No loss
